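Interpolation was linear, between the two tested concentrations surrounding the appropriate level; five concentrations were tested over 48 hours in 96-well plates. GI50 is the concentration that inhibits growth by half.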 Calls of active or inactive are those of the source. Cut-off read from the data, not from the text of the source: active = GI50 up to about 1.1 µM and inactive = higher.
Legend:
Test in all cases: NCI-60 cell line screen, 48 h
[1] = tested on: SN12C
[2] = tested on: M19-MEL
[3] = tested on: DLD-1
[4] = tested on: SF-268
[5] = tested on: CCRF-CEM
[6] = tested on: SF-539
[7] = tested on: HOP-18
[8] = tested on: NCI-H23
[9] = tested on: HOP-92
[10] = tested on: A549
[11] = tested on: IGROV-1
[12] = tested on: SR
[13] = tested on: HT-29
[14] = tested on: SNB-19
[15] = tested on: LOX IMVI
[16] = tested on: A498
[17] = tested on: K562
[18] = tested on: HCT-15
[19] = tested on: NCI-H460
[20] = tested on: HCC 2998
[21] = tested on: EKVX
[22] = tested on: KM12
[23] = tested on: HOP-62
[24] = tested on: UO-31
[25] = tested on: OVCAR-4
[26] = tested on: UACC-62
[27] = tested on: 786-0
[28] = tested on: HL-60
[29] = tested on: U-251
[30] = tested on: HCT-116
[31] = tested on: MOLT-4
[32] = tested on: RXF 631
[33] = tested on: CAKI-1
[34] = tested on: COLO 205
[35] = tested on: M14
[36] = tested on: OVCAR-5
[37] = tested on: ACHN
[38] = tested on: RPMI-8226
[39] = tested on: OVCAR-8
[40] = tested on: SF-295
[41] = tested on: XF498
[42] = tested on: SK-MEL-2
[43] = tested on: DMS-273
[44] = tested on: SW-620
[45] = tested on: TK-10
[46] = tested on: SNB-78
[47] = tested on: Malme-3M
[48] = tested on: RXF 393
[49] = tested on: SK-OV-3
[50] = tested on: SNB-75
[51] = tested on: SK-MEL-5
[52] = tested on: LXFL 529
[53] = tested on: UACC-257
[54] = tested on: OVCAR-3
[55] = tested on: KM-20L2
[56] = tested on: NCI-H522
[57] = tested on: SK-MEL-28
[58] = tested on: NCI-H226

For `Cn1c(=O)c2c3oc(=O)cc(O)c3c(=O)n3c4ccccc4n(c1=O)c23`, which GI50 [1] is on record?
The GI50 was 34 µM (inactive).

What about the GI50 [2] of the same molecule?
Its GI50 is 38.9 µM (inactive).

And the GI50 [3]?
Its GI50 is 35.8 µM (inactive).

What about the GI50 [4] of the same molecule?
Its GI50 is 47.6 µM (inactive).

What about the GI50 [5] of the same molecule?
The GI50 was 29.2 µM (inactive).

And the GI50 [6]?
Its GI50 is 47.6 µM (inactive).

What about the GI50 [7] of the same molecule?
Its GI50 is 36.5 µM (inactive).

What about the GI50 [8] of the same molecule?
The GI50 was 35.6 µM (inactive).

What about the GI50 [9] of the same molecule?
The GI50 was 33.2 µM (inactive).

What about the GI50 [10] of the same molecule?
Its GI50 is 45.7 µM (inactive).

And the GI50 [11]?
Its GI50 is 44.2 µM (inactive).

What about the GI50 [12] of the same molecule?
The GI50 was 20.4 µM (inactive).

And the GI50 [13]?
Its GI50 is 39.7 µM (inactive).

And the GI50 [14]?
Its GI50 is > 100 µM (inactive).

And the GI50 [15]?
Its GI50 is 15.8 µM (inactive).

What about the GI50 [16] of the same molecule?
Its GI50 is 23.9 µM (inactive).

And the GI50 [17]?
Its GI50 is 20.3 µM (inactive).

What about the GI50 [18] of the same molecule?
Its GI50 is 27.8 µM.

What about the GI50 [19] of the same molecule?
The GI50 was 37.2 µM (inactive).

What about the GI50 [20] of the same molecule?
Its GI50 is 42.6 µM (inactive).

What about the GI50 [21] of the same molecule?
Its GI50 is 57.3 µM (inactive).

What about the GI50 [22] of the same molecule?
The GI50 was 35.6 µM (inactive).

What about the GI50 [23] of the same molecule?
Its GI50 is > 100 µM (inactive).

What about the GI50 [24] of the same molecule?
The GI50 was 28.8 µM (inactive).

And the GI50 [25]?
The GI50 was 36.5 µM (inactive).

What about the GI50 [26] of the same molecule?
Its GI50 is 35 µM (inactive).

What about the GI50 [27] of the same molecule?
The GI50 was 33.3 µM (inactive).

And the GI50 [28]?
The GI50 was 21.1 µM (inactive).

What about the GI50 [29] of the same molecule?
The GI50 was 41.4 µM (inactive).

What about the GI50 [30] of the same molecule?
Its GI50 is 32.8 µM (inactive).

What about the GI50 [31] of the same molecule?
Its GI50 is 33.3 µM (inactive).

What about the GI50 [32] of the same molecule?
The GI50 was 46.6 µM (inactive).

What about the GI50 [33] of the same molecule?
The GI50 was 32.3 µM (inactive).

What about the GI50 [34] of the same molecule?
The GI50 was 27.9 µM (inactive).

What about the GI50 [35] of the same molecule?
Its GI50 is 43.3 µM (inactive).

What about the GI50 [36] of the same molecule?
Its GI50 is 52.5 µM (inactive).

What about the GI50 [37] of the same molecule?
The GI50 was 38 µM (inactive).

And the GI50 [38]?
The GI50 was 24 µM (inactive).

And the GI50 [39]?
Its GI50 is 40.9 µM (inactive).

What about the GI50 [40] of the same molecule?
Its GI50 is > 100 µM (inactive).

And the GI50 [41]?
The GI50 was 23.8 µM (inactive).

And the GI50 [42]?
Its GI50 is 23.4 µM (inactive).

And the GI50 [43]?
Its GI50 is 31.5 µM (inactive).

What about the GI50 [44] of the same molecule?
The GI50 was 40.5 µM (inactive).

What about the GI50 [45] of the same molecule?
The GI50 was > 100 µM (inactive).

What about the GI50 [46] of the same molecule?
Its GI50 is 37 µM (inactive).

And the GI50 [47]?
Its GI50 is 33.1 µM (inactive).

What about the GI50 [48] of the same molecule?
Its GI50 is 38.8 µM (inactive).

And the GI50 [49]?
Its GI50 is > 100 µM (inactive).

What about the GI50 [50] of the same molecule?
Its GI50 is 32.2 µM (inactive).

What about the GI50 [51] of the same molecule?
Its GI50 is 28 µM (inactive).

What about the GI50 [52] of the same molecule?
The GI50 was 34.8 µM (inactive).

And the GI50 [53]?
Its GI50 is 26.1 µM (inactive).

What about the GI50 [54] of the same molecule?
The GI50 was 24.6 µM (inactive).

`OCC1OC(NO)C(O)C(O)C1O` (configuration not stated) was tested. Which GI50 [1] did it give?
Its GI50 is > 100 µM (inactive).

What about the GI50 [2] of the same molecule?
The GI50 was > 100 µM (inactive).

And the GI50 [3]?
The GI50 was > 100 µM (inactive).

What about the GI50 [4] of the same molecule?
The GI50 was > 100 µM (inactive).

And the GI50 [5]?
The GI50 was > 100 µM (inactive).

What about the GI50 [6] of the same molecule?
The GI50 was > 100 µM (inactive).

What about the GI50 [7] of the same molecule?
Its GI50 is > 100 µM (inactive).

What about the GI50 [8] of the same molecule?
Its GI50 is > 100 µM (inactive).

And the GI50 [9]?
Its GI50 is > 100 µM (inactive).

What about the GI50 [10] of the same molecule?
The GI50 was > 100 µM (inactive).

What about the GI50 [11] of the same molecule?
Its GI50 is > 100 µM (inactive).

And the GI50 [12]?
The GI50 was > 100 µM (inactive).

And the GI50 [13]?
Its GI50 is > 100 µM (inactive).

And the GI50 [14]?
The GI50 was > 100 µM (inactive).

And the GI50 [15]?
The GI50 was > 100 µM (inactive).

And the GI50 [16]?
The GI50 was > 100 µM (inactive).

What about the GI50 [17] of the same molecule?
Its GI50 is > 100 µM (inactive).

What about the GI50 [18] of the same molecule?
The GI50 was > 100 µM.

And the GI50 [19]?
The GI50 was > 100 µM (inactive).

What about the GI50 [20] of the same molecule?
The GI50 was > 100 µM (inactive).

What about the GI50 [22] of the same molecule?
The GI50 was > 100 µM (inactive).

And the GI50 [23]?
The GI50 was > 100 µM (inactive).

And the GI50 [25]?
Its GI50 is > 100 µM (inactive).

What about the GI50 [26] of the same molecule?
The GI50 was > 100 µM (inactive).

And the GI50 [27]?
The GI50 was > 100 µM (inactive).

And the GI50 [28]?
The GI50 was > 100 µM (inactive).

And the GI50 [29]?
The GI50 was > 100 µM (inactive).

And the GI50 [55]?
Its GI50 is > 100 µM (inactive).

And the GI50 [30]?
The GI50 was > 100 µM (inactive).

And the GI50 [31]?
Its GI50 is > 100 µM (inactive).

What about the GI50 [32] of the same molecule?
Its GI50 is > 100 µM (inactive).

And the GI50 [33]?
The GI50 was > 100 µM (inactive).

And the GI50 [34]?
Its GI50 is > 100 µM (inactive).

What about the GI50 [35] of the same molecule?
The GI50 was > 100 µM (inactive).

What about the GI50 [36] of the same molecule?
The GI50 was > 100 µM (inactive).

And the GI50 [37]?
Its GI50 is > 100 µM (inactive).

What about the GI50 [38] of the same molecule?
The GI50 was > 100 µM (inactive).

And the GI50 [39]?
The GI50 was > 100 µM (inactive).

What about the GI50 [40] of the same molecule?
Its GI50 is > 100 µM (inactive).

What about the GI50 [41] of the same molecule?
The GI50 was > 100 µM (inactive).

And the GI50 [43]?
The GI50 was > 100 µM (inactive).

And the GI50 [44]?
Its GI50 is > 100 µM (inactive).

What about the GI50 [45] of the same molecule?
The GI50 was > 100 µM (inactive).

What about the GI50 [46] of the same molecule?
The GI50 was > 100 µM (inactive).

And the GI50 [56]?
The GI50 was > 100 µM (inactive).

And the GI50 [47]?
Its GI50 is > 100 µM (inactive).

What about the GI50 [48] of the same molecule?
The GI50 was > 100 µM (inactive).

What about the GI50 [57] of the same molecule?
The GI50 was > 100 µM (inactive).

What about the GI50 [51] of the same molecule?
The GI50 was > 100 µM (inactive).

And the GI50 [52]?
Its GI50 is > 100 µM (inactive).

What about the GI50 [58] of the same molecule?
Its GI50 is > 100 µM (inactive).

And the GI50 [53]?
Its GI50 is > 100 µM (inactive).

And the GI50 [54]?
The GI50 was > 100 µM (inactive).
